Patent US20220000841A1, “INHIBITORS OF METALLO-BETA-LACTAMASES” (CENTRE NATIONAL DE LA RECHERCHE SCIENTIFIQUE, priority 2018, published 2022)
Like-named read-outs stand apart in the source and are kept apart here.

How the values were obtained:
VIM-2 = VIM-2 (Escherichia coli, UniProt Q5U7L7); experiment: Enzymatic assay for determination of inhibition constants, reporter substrate method, purified VIM-2; format: biochemical;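 also: purified VIM-2 hydrolysing a reporter substrate (imipenem, meropenem, cefotaxime or nitrocefin), reaction rate read as absorbance change, HEPES 50 mM at pH 7.5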
Method: (§1) The reaction rate was measured as the variation of absorbance observed upon substrate hydrolysis in a UV-Vis spectrophotometer or microplate reader at a wavelength of 300 nm (imipenem, meropenem), 260 nm (cefotaxime) or 482 nm (nitrocefin) in 50 mM HEPES buffer (pH 7.5) and in the presence of a purified MBL enzyme (such as VIM-1, VIM-2, VIM-4, NDM-1 and IMP-1, at a final concentration ranging 1-70 nM).
(§2) The inhibition constants (Ki) were determined on the basis of a model of competitive inhibition by analyzing the dependence of the ratio v0/vi (v0, hydrolysis velocity in the absence of inhibitor; vi, hydrolysis velocity in the presence of inhibitor) as a function of [I] as already described [Docquier J. D., Lamotte-Brasseur J., Galleni M., Amicosante G., Frère J. M., Rossolini G. M. (2003) J. Antimicrob. […] The slope of the plot of v0/vi vs [I], which corresponds to Km^S/(Km^S+[S])Ki (where Km^S is the Km value of the reporter substrate and [S] its concentration in the reaction mixture) and allowed the calculation of the Ki value. Alternatively, a Dixon plot analysis was carried out, by measuring the initial hydrolysis rates in the presence of variable concentrations of inhibitor and substrate.

NDM-1 = NDM-1 (Klebsiella pneumoniae, UniProt C7C422); experiment: Enzymatic assay for determination of inhibition constants, reporter substrate method, purified NDM-1; format: biochemical; details: for Ki: isolated MBL, competitive inhibition model;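 as to all read-outs here: purified enzyme activity followed as absorbance change from reporter substrate hydrolysis on a UV-Vis spectrophotometer or plate reader, 50 mM HEPES pH 7.5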
Method: as §1, §2

IMP-1 = IMP-1 (Serratia marcescens, UniProt P52699); experiment: Enzymatic assay for determination of inhibition constants, reporter substrate method, purified IMP-1; format: biochemical; details: for Ki: isolated MBL, competitive inhibition model; for % inhibition IMP-1: at 200 μM (maximal tested concentration);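 as to all read-outs here: purified IMP-1 (1-70 nM) hydrolysing a reporter substrate, initial rates followed as absorbance change at 260, 300 or 482 nm in 50 mM HEPES pH 7.5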
Method: as §1, §2

VIM-1 = VIM-1 (Pseudomonas aeruginosa, UniProt A0A0F7KYQ8); experiment: Enzymatic assay for determination of inhibition constants, reporter substrate method, purified VIM-1; format: biochemical; details: for Ki: isolated MBL, competitive inhibition model;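 as to all read-outs here: initial hydrolysis rates of a reporter β-lactam (imipenem, meropenem, cefotaxime or nitrocefin) followed by absorbance change, purified enzyme at 1–70 nM in 50 mM HEPES pH 7.5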
Method: as §1, §2

VIM-4 = VIM-4 (Pseudomonas aeruginosa, UniProt Q8KRJ3); experiment: Enzymatic assay for determination of inhibition constants, reporter substrate method, purified VIM-4; format: biochemical; details: at 100 μM (maximal tested concentration);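 also: purified VIM-4 (1-70 nM) in 50 mM HEPES pH 7.5, reporter substrate hydrolysis rate tracked by absorbance change (nitrocefin 482 nm, imipenem or meropenem 300 nm, cefotaxime 260 nm)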
Method: as §1, §2

[1] = isolated MBL, competitive inhibition model, read-out: Ki VIM-2
[2] = at 200 μM (maximal tested concentration)
[3] = at 100 μM (maximal tested concentration)

Sequence of NDM-1 (C7C422 29-270, looked up, species assumed): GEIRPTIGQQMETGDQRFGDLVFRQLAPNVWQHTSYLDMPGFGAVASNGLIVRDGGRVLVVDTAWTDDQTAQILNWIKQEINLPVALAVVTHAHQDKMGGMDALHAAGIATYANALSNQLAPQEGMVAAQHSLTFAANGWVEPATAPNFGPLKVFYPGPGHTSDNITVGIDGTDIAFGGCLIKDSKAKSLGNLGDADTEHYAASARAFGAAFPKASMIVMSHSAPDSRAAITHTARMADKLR
Sequence of IMP-1 (P52699 19-246, looked up, species assumed): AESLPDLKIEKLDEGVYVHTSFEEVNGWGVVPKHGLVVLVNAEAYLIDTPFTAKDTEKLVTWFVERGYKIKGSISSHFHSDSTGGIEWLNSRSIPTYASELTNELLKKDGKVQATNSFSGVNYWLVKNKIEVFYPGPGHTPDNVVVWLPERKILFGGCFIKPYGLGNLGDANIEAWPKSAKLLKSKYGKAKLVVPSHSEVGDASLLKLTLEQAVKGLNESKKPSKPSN

Row | Compound | melting point | Ki (VIM-2; [1]) | Ki (NDM-1) | Ki (IMP-1) | % inhibition VIM-4 (VIM-4) | further results
1 | O=C(O)c1ccccc1CCn1c(-c2ccccc2)n[nH]c1=S [Compound 1, 2-[2-(3-phenyl-5-sulfanylidene-4,5-dihydro-1H-1,2,4-triazol-4-yl)ethyl]benzoic acid] | 220 to 221 °C | < 1 µM | > 100 µM | > 100 µM | – | Ki (VIM-2; as listed in Table 2, read-out: Ki on VIM-2): < 1 µM; Ki (VIM-1): > 100 µM
2 | O=C(O)c1ccccc1CCn1c(-c2ccc3ccccc3c2)n[nH]c1=S [Compound 3, 2-{2-[3-(naphthalen-2-yl)-5-sulfanylidene-4,5-dihydro-1H-1,2,4-triazol-4-yl]ethyl}benzoic acid] | 240 to 241 °C | < 1 µM | – | 10 to 100 µM | 75% at 100 μM | % inhibition NDM-1 (NDM-1; [2]): 60% at 200 μM; Ki (VIM-1): > 100 µM
3 | Cc1ccccc1-c1n[nH]c(=S)n1CCc1ccccc1 [Compound 6, 3-(2-methylphenyl)-4-(2-phenylethyl)-4,5-dihydro-1H-1,2,4-triazole-5-thione] | – | – | > 100 µM | – | 50% at 100 μM | % inhibition VIM-2 (VIM-2; [2]): 60% at 200 μM; % inhibition IMP-1 (IMP-1): 80% at 200 μM; % inhibition VIM-1 (VIM-1; [2]): 60% at 200 μM
4 | S=c1[nH]nc(-c2ccccc2)n1CCc1ccccc1 [Compound 11, 3-phenyl-4-(2-phenylethyl)-4,5-dihydro-1H-1,2,4-triazole-5-thione] | – | > 100 µM | > 100 µM | 1 to 10 µM | 75% at 100 μM | % inhibition VIM-1 (VIM-1; [2]): 75% at 200 μM
5 | O=C(O)c1ccccc1CNn1c(-c2ccc3ccccc3c2)n[nH]c1=S [Compound 16, 2-({[3-(naphthalen-2-yl)-5-sulfanylidene-4,5-dihydro-1H-1,2,4-triazol-4-yl]amino}methyl)benzoic acid] | 213 to 214 °C | 1 to 10 µM | > 100 µM | > 100 µM | – | Ki (VIM-1): > 100 µM
6 | O=C(O)CC1(Cn2c(-c3ccccc3)n[nH]c2=S)CCCCC1 [Compound 17, 2-{1-[(3-phenyl-5-sulfanylidene-4,5-dihydro-1H-1,2,4-triazol-4-yl)methyl]cyclohexyl}acetic acid] | 80 to 81 °C | 1 to 10 µM | > 100 µM | > 100 µM | 60% at 100 μM | –
7 | COc1cccc(-c2n[nH]c(=S)n2CCc2ccccc2C(=O)O)c1 [Compound 22, 2-{2-[3-(3-methoxyphenyl)-5-sulfanylidene-4,5-dihydro-1H-1,2,4-triazol-4-yl]ethyl}benzoic acid] | 197 to 198 °C | < 1 µM | > 100 µM | > 100 µM | 80% at 100 μM | –
8 | Cc1nnsc1-c1n[nH]c(=S)n1CCc1ccccc1C(=O)O [Compound 23, 2-{2-[3-(4-methyl-1,2,3-thiadiazol-5-yl)-5-sulfanylidene-4,5-dihydro-1H-1,2,4-triazol-4-yl]ethyl}benzoic acid] | 195 to 196 °C | > 100 µM | > 100 µM | – | – | % inhibition IMP-1 (IMP-1): 95% at 200 μM
9 | COc1cccc(-c2n[nH]c(=S)n2CCCC(=O)O)c1 [Compound 24, 4-[3-(3-methoxyphenyl)-5-sulfanylidene-4,5-dihydro-1H-1,2,4-triazol-4-yl]butanoic acid] | 159 to 160 °C | – | > 100 µM | > 100 µM | 85% at 100 μM | % inhibition VIM-2 (VIM-2; [2]): 70% at 200 μM
10 | CC(C)(C)OC(=O)NC(CCCn1c(-c2ccccc2)n[nH]c1=S)C(=O)O (stereo not shown) [Compound 25, 2-{[(tert-butoxy)carbonyl]amino}-5-(3-phenyl-5-sulfanylidene-4,5-dihydro-1H-1,2,4-triazol-4-yl)pentanoic acid] | 105 to 106 °C | 1 to 10 µM | > 100 µM | > 100 µM | 85% at 100 μM | –
11 | CCCCCCn1c(-c2ccccc2)n[nH]c1=S [Compound 26, 4-hexyl-3-phenyl-4,5-dihydro-1H-1,2,4-triazole-5-thione] | 98 to 99 °C | 1 to 10 µM | > 100 µM | > 100 µM | 85% at 100 μM | –
12 | O=C(O)c1ccccc1CCn1c(-c2ccc(Cl)s2)n[nH]c1=S [Compound 27, 2-{2-[3-(5-chlorothiophen-2-yl)-5-sulfanylidene-4,5-dihydro-1H-1,2,4-triazol-4-yl]ethyl}benzoic acid] | 240 to 241 °C | 1 to 10 µM | > 100 µM | > 100 µM | 85% at 100 μM | –
13 | FC(F)(F)c1cc(SCCn2c(-c3ccccc3)n[nH]c2=S)c2ccccc2n1 [Compound 28, 3-phenyl-4-(2-{[2-(trifluoromethyl)quinolin-4-yl]sulfanyl}ethyl)-4,5-dihydro-1H-1,2,4-triazole-5-thione] | 184 to 185 °C | > 100 µM | 10 to 100 µM | > 100 µM | – | –
14 | COc1ccc(O)c(-c2n[nH]c(=S)n2CCCCC(=O)O)c1 [Compound 29, 5-[3-(2-hydroxy-5-methoxyphenyl)-5-sulfanylidene-4,5-dihydro-1H-1,2,4-triazol-4-yl]pentanoic acid] | 155 to 156 °C | – | > 100 µM | > 100 µM | 90% at 100 μM | % inhibition VIM-2 (VIM-2; [2]): 60% at 200 μM
15 | O=C(O)CCCCn1c(-c2ccc3ccccc3c2)n[nH]c1=S [Compound 30, 5-[3-(naphthalen-2-yl)-5-sulfanylidene-4,5-dihydro-1H-1,2,4-triazol-4-yl]pentanoic acid] | 170 to 171 °C | 1 to 10 µM | > 100 µM | – | 80% at 100 μM | % inhibition IMP-1 (IMP-1): 60% at 200 μM
16 | Oc1ccc(CCn2c(-c3ccccc3)n[nH]c2=S)cc1 [Compound 31, 4-[2-(4-hydroxyphenyl)ethyl]-3-phenyl-4,5-dihydro-1H-1,2,4-triazole-5-thione] | – | 1 to 10 µM | 10 to 100 µM | 10 to 100 µM | 70% at 100 μM | Ki (VIM-1): 1 to 10 µM
17 | CCCCn1c(-c2ccccc2)n[nH]c1=S [Compound 32, 4-butyl-3-phenyl-4,5-dihydro-1H-1,2,4-triazole-5-thione] | 128 to 129 °C | 1 to 10 µM | > 100 µM | 10 to 100 µM | 75% at 100 μM | –
18 | O=C(O)C1CCC(Cn2c(-c3ccccc3)n[nH]c2=S)CC1 (stereo not shown) [Compound 34, 4-[(3-phenyl-5-sulfanylidene-4,5-dihydro-1H-1,2,4-triazol-4-yl)methyl]cyclohexane-1-carboxylic acid] | 207 to 208 °C | – | > 100 µM | > 100 µM | 90% at 100 μM | % inhibition VIM-2 (VIM-2; [2]): 75% at 200 μM
19 | O=C(O)c1ccccc1CCn1c(C23CC4CC(CC(C4)C2)C3)n[nH]c1=S [Compound 35, 2-{2-[3-(adamantan-1-yl)-5-sulfanylidene-4,5-dihydro-1H-1,2,4-triazol-4-yl]ethyl}benzoic acid] | > 250 °C | 1 to 10 µM | > 100 µM | > 100 µM | 55% at 100 μM | –
20 | O=C(O)CCCCCn1c(-c2ccccc2)n[nH]c1=S [Compound 45, 6-(3-Phenyl-5-sulfanylidene-4,5-dihydro-1H-1,2,4-triazol-4-yl)hexanoic acid] | 136 to 137 °C | < 1 µM | – | > 100 µM | 85% at 100 μM | % inhibition NDM-1 (NDM-1; [3]): 55% at 100 μM
21 | O=C(O)C1CCCC(n2c(-c3ccccc3)n[nH]c2=S)C1 (stereo not shown) [Compound 47, 3-(3-Phenyl-5-sulfanylidene-4,5-dihydro-1H-1,2,4-triazol-4-yl)cyclohexane-1-carboxylic acid] | 234 to 235 °C | – | > 100 µM | > 100 µM | 70% at 100 μM | % inhibition VIM-2 (VIM-2; [3]): 60% at 100 μM
22 | [N-]=[N+]=NCCn1c(-c2ccccc2)n[nH]c1=S [Compound 49, 4-(2-Azidoethyl)-3-phenyl-4,5-dihydro-1H-1,2,4-triazole-5-thione] | 108 to 109 °C | > 100 µM | > 100 µM | – | – | % inhibition IMP-1 (IMP-1): 90% at 200 μM
23 | O=C(O)CCCn1c(-c2ccc3ccccc3n2)n[nH]c1=S [Compound 50, 4-[3-(Quinolin-2-yl)-5-sulfanylidene-4,5-dihydro-1H-1,2,4-triazol-4-yl]butanoic acid] | 238 to 239 °C | – | – | > 100 µM | 85% at 100 μM | % inhibition VIM-2 (VIM-2; [2]): 80% at 200 μM; % inhibition NDM-1 (NDM-1; [2]): 50% at 200 μM
24 | O=C(O)c1ccc(Cn2c(-c3ccccc3)n[nH]c2=S)cc1 [Compound 55, p-[(3-Phenyl-5-thioxo-1,4-dihydro-1,2,4-triazol-4-yl)methyl]benzoic acid] | – | – | > 100 µM | > 100 µM | 80% at 100 μM | % inhibition VIM-2 (VIM-2; [2]): 80% at 200 μM
25 | O=C(O)c1ccccc1CCn1c(-c2ccc[nH]2)n[nH]c1=S [Compound 57, o-{2-[3-(1H-Pyrrol-2-yl)-5-thioxo-1,4-dihydro-1,2,4-triazol-4-yl]ethyl}benzoic acid] | – | – | – | > 100 µM | 65% at 100 μM | % inhibition VIM-2 (VIM-2; [2]): 80% at 200 μM; % inhibition NDM-1 (NDM-1; [2]): 60% at 200 μM
26 | S=c1[nH]nc(-c2ccccc2)n1CCCSc1ccccc1 [Compound 79, 5-Phenyl-4-[3-(phenylthio)propyl]-2,4-dihydro-1,2,4-triazole-3-thione] | – | – | > 100 µM | > 100 µM | 71% at 100 μM | % inhibition VIM-2 (VIM-2; [3]): 72% at 100 μM; % inhibition VIM-1 (VIM-1; [3]): 82% at 100 μM
